Laboratory results from article PMC6803038 (Angewandte Chemie (International ed. in English), 2019).
Where no end group is shown, it is not given here. [ ]: non-standard residue; d: D form. Nle = CCCC[C@H](N)C(=O)O

T1: HDAC8 (UniProt Q9BY41 1-377)
T1 sequence (looked up): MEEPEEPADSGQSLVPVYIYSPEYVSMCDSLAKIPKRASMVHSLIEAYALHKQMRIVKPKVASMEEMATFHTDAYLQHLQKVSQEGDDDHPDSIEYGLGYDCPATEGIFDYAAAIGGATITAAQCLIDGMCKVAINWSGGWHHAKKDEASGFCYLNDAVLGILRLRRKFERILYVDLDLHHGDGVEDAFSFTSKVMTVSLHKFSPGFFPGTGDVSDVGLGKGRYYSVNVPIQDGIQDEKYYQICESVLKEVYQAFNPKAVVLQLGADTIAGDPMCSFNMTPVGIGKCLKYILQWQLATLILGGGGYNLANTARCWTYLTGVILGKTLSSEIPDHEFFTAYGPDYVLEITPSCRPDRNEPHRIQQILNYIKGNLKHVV

B1: 5-FAM-conjugated LinH8a’ (peptide)
chain: CQSLWMN[Nle]
modifications: also: 5-FAM conjugated, site not given here
B2: 5-FAM-conjugated LinH8a (peptide)
chain: CQSLWMNK
modifications: also: 5-FAM conjugated, site not given here

Experiments:
[1] = physiological conditions; cited from earlier work
TEV protease = TEV protease (Tobacco etch virus, UniProt P04517); experiment: Fluorescence polarization binding of 5-FAM-conjugated peptides to TEV protease; conditions: cyclic vs linear counterpart
Chain of TEV protease (P04517 2038-2279): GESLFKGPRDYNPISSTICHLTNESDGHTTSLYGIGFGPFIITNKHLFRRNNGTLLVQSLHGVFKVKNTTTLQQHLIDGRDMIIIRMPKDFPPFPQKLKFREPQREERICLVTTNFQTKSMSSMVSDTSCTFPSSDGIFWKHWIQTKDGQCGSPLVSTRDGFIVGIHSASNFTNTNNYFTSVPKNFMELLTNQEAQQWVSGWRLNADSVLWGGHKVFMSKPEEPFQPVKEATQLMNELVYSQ

HDAC8 = target: T1, HDAC8; experiment: fluorescence polarisation

Row | Molecule | better binding of cyclic peptide than its linear counterpart (TEV protease) | Kd (HDAC8) | further results
1 | C=CC(=O)NCCCC[C@H](N)C(=O)O [AcrK, N^ε-acryloyl-lysine] | – | – | second-order rate constant of reaction with a thiol [1]: 0.004 M⁻¹ s⁻¹
2 | CC[C@H](C)[C@@H]1NC(=O)[C@H](CC(C)C)NC(=O)[C@H](Cc2ccc(O)cc2)NC(=O)[C@H](CC(=O)O)NC(=O)[C@H](CCCNC(=N)N)NC(=O)[C@H](Cc2c[nH]c3ccccc23)NC(=O)[C@@H](N)CSCCC(=O)NCCCC[C@@H](C(=O)O)NC1=O [CycTev1, CWRDYLIX] | > 6 fold | – | –
3 | N=C(N)NCCC[C@@H]1NC(=O)[C@H](Cc2c[nH]cn2)NC(=O)[C@H](CO)NC(=O)[C@H](Cc2ccccc2)NC(=O)[C@H](Cc2c[nH]c3ccccc23)NC(=O)[C@H](CCC(N)=O)NC(=O)[C@@H](N)CSCCC(=O)NCCCC[C@@H](C(=O)O)NC1=O [CycTev2, CQWFSHRX] | > 6 fold | – | –
4 | B1 | – | 31 ± 7 µM | –
5 | B2 | – | > 50 µM | –
